Laboratory results reported in article PMC11396062, “The n-Butanol Extract Obtained from the Inner Bark of Tabebuia rosea (Bertol.) DC, Specioside, and Catalposide Induce Leukemia Cell Apoptosis in the Presence of Apicidin” (Molecules, 2024).
In brackets after ≈: the same amount, converted by molar mass.

Key:
[1] = test system: Bcl-2; test: Western blot Bcl-2 protein; format: cell-based, human; details: THP-1, catalposide 44 μg/mL, specioside 40 μg/mL, APC pretreatment (Figure 9)
Description: (§1) THP-1 cells were seeded in 24-well plates (5 × 10^5 cells/well), and after 24 h of incubation, they were pretreated with 1 µM apicidin for 24 h and then treated with different concentrations of the n-butanol extract, catalposide, and specioside for 24 h. After treatment, the cells were lysed with an Abcam protein extraction kit (ab270054), and a phosphatase inhibitor cocktail (ab201115) was added. The supernatants of the cell extracts were quantified with a BCA protein assay (Thermo Scientific Pierce #23227, Waltham, MA, USA). Equivalent amounts of protein were electrophoresed on 10% SDS polyacrylamide gels and then electroblotted onto 0.45 μm polyvinylidene difluoride (PVDF) membranes (GE Healthcare, Chicago, IL, USA). […] The signals were detected using SuperSignal™ West Pico PLUS Chemiluminescent Substrate (Thermo Scientific Pierce cat 34577) and analyzed with a ChemiDoc XRS+ system (Bio-Rad, Hercules, CA, USA). The density of each band was measured using ImageJ software V. 1.53n, 7 November 2021 (NIH, Bethesda, MD, USA), and the protein levels were normalized to the GAPDH levels. The data are expressed as the means of three independent experiments. […]

[2] = test system: Peripheral blood mononuclear cells (PBMCs); test: MTT cell viability assay, PBMC (normal cells); format: cell-based; details: Homo sapiens, n = 3
Description: Jurkat and THP-1 cell lines were purchased from the American Type Culture Collection (ATCC, Rockville, MD, USA); Jurkat is a human lymphocytic cell line representing acute T-cell leukemia, and THP-1 is a monocytic cell line that represents acute myelogenous leukemia (AML). Jurkat and THP-1 cells were maintained in RPMI 1640 medium (Sigma) supplemented with 10% heat-inactivated fetal bovine serum (FBS) (Gibco Cat No. 16140071, Waltham, MA USA), 200 μg/mL penicillin, 200 μg/mL streptomycin, 400 μg/mL neomycin (GIBCO, Cat No. 15640-055), 5 μg/mL amphotericin, and 1 mM sodium pyruvate (all from Sigma Chemical Co., Saint Louis, MO, USA; Cat Nos. A9528-50 MG, M7522-100ML, and S8636-100ML, respectively). The cells were maintained at 37 °C in a humidified atmosphere with 5% CO2. The culture medium was exchanged with fresh medium every 2–3 days. Peripheral blood mononuclear cells (PBMCs) were isolated from normal human venous blood. Further, 10 milliliters of human blood was mixed with 10 mL of RPMI-1640 containing 50 µL of heparin and gradually poured over 1 mL of HISTOPAQUE®-1119 (Sigma). The plasma was removed by centrifugation at 3000 rpm for 30 min. The peripheral blood mononuclear cell-containing layer was collected with a pipette and diluted in 4 mL of PBS. PBMCs were harvested by centrifugation at 1500 rpm for 10 min at room temperature, resuspended in RPMI-1640 with 10% FBS, and incubated at 37 °C in 5% CO2 humidified air.
Cell viability was determined by measuring the mitochondrial activity of live cells via the metabolism of the tetrazolium substrate 3-(4,5-dimethylthiazol-2-yl)-2,5-diphenyl tetrazolium bromide (MTT) and converting it to purple formazan crystals. Briefly, the cells (2 × 10^4 cells/well) were treated with 25, 50, 100, 200, or 400 μg/mL extract diluted in DMSO (at a final concentration of 0.5%) and incubated for 12, 24, or 48 h. Catalposide and specioside were tested at concentrations of 20, 50, and 100 μg/mL for 12, 24, and 48 h. For apicidin, 0.5, 1, and 2 μM apicidin were tested for 24 and 48 h. Doxorubicin was used as a reference standard drug (positive control). After treatment, the medium was discarded; 200 μL of RPMI 1640 medium without phenol red containing 0.5 mg/mL MTT (Sigma Chemical Co., Saint Louis, MO, USA; Cat. No. M2128-500MG) was then added to each well. The plates were incubated for four hours at 37 °C with 5% CO2 in a humidified atmosphere. The medium was discarded, and 100 μL of DMSO was added to solubilize the formazan crystals. The absorbance was measured with an ELISA microplate reader at 492 nm (ELx800; BioTek Instruments Inc., Winooski, VT, USA). The percentage of viable cells was calculated on the basis of the nontreated control (taken as 100%). The IC50 (concentration causing a 50% reduction in cellular viability) values for all the tested compounds were evaluated in Excel using the nonlinear regression curve method. Three independent assays were performed, each in triplicate.

[3] = test system: ERK; test: Western blot ERK phosphorylation; format: cell-based, human; details: THP-1, 24 h
Description: as §1

| SMILES | antiapoptotic protein Bcl-2 (Western blot) [1] | IC50 ([2]; 12 h) | IC50 ([2]; 24 h) | IC50 ([2]; 48 h) | phosphorylation of the ERK protein compared with control [3] |
| --- | --- | --- | --- | --- | --- |
| O=C(/C=C/c1ccc(O)cc1)O[C@H]1[C@@H]2C=CO[C@@H](O[C@@H]3O[C@H](CO)[C@@H](O)[C@H](O)[C@H]3O)[C@@H]2[C@@]2(CO)O[C@@H]12 [Specioside] | decrease | 165 ± 3.1 µg/mL (≈ 325 µM) | 70.7 ± 3.7 µg/mL (≈ 139 µM) | 54.2 ± 3.7 µg/mL (≈ 107 µM) | did not significantly change |
| O=C(O[C@H]1[C@@H]2C=CO[C@@H](O[C@@H]3O[C@H](CO)[C@@H](O)[C@H](O)[C@H]3O)[C@@H]2[C@@]2(CO)O[C@@H]12)c1ccc(O)cc1 [Catalposide, catalposide] | decrease | 126 ± 2.8 µg/mL (≈ 260 µM) | 87.7 ± 3.1 µg/mL (≈ 182 µM) | 43.4 ± 3.4 µg/mL (≈ 90 µM) | decreased protein phosphorylation but not significantly |
